# Data from patent US20130317037A1, “METHOD OF ADMINISTRATION AND TREATMENT” (GlaxoSmithKline Intellectual Property Development Limited, priority 2010, published 2013).
# Where two headings read alike, the source gives them in different places.
# Legend:
# Type in all cases: cell-based, human
# MDA-MB-175-VII = test: Panel A proliferation assay (CellTiter-Glo); HER2 2 copies, KRAS WT, PIK3CA WT; details: for IC50: Homo sapiens
# Protocol: (§1) A total of 15 breast cancer cell lines were used in this study. These cells were cultured in RPMI-1640 and supplemented with 5% or 10% fetal bovine serum, 2 mM GlutaMAX™ and 1 mM sodium pyruvate, or in growth medium recommended by the suppliers [American Type Culture Collection, Manassas, Va., USA; Developmental Therapeutics Program, National Cancer Institute, Bethesda, Md., USA; German Collection of Microorganisms and Cell Cultures (DSMZ), Braunschweig, Germany; European Collection of Cell Cultures (ECACC), Porton Down, UK]. Cells of each line were seeded into a 384-well microtiter plate at two cell densities. Low density ranges were 300-1800 cells/well, and a high density was 600 to 3600 cells/well). The plating density was determined by the rate of proliferation of the cell line in the absence of any inhibitor and varied amongst cell lines. High plating densities were double that of low density. Each cell density was plated in triplicate. In total there were 30 wells to be treated with increasing concentrations of Compound B for each cell line at each density. In addition, there were 24 wells of dimethyl sulfoxide (DMSO)-treated controls at each density. After seeding, the cells were incubated at 37° C. in 5% CO2 for 24 hours. Subsequently, Compound B was added to each cell line with 10 concentrations. The dosing solution of Compound B was first prepared in DMSO at a master stock concentration of 10 mM. […] were then made of the stock solution to give a range of working stock concentrations; 10.00 mM, 3.164 mM, 1.001 mM, 316.9 μM, 100.3 μM, 31.74 μM, 10.04 μM, 3.178 μM, 1.006 μM and 318.3 nM. The working stock concentrations of Compound B were then dispensed into the seeded cancer cell lines using a Biomek FX liquid handler to give final treatment concentrations of 0.1% of the stock concentration. A similar volume of DMSO without Compound B was dispensed into the 24 control wells of each seeding density at a concentration of 0.1%. Also, a zero-time plate prepared with a similar cell seeding was read for each cell line at each seeding density immediately after the addition of the DMSO control. After a 72 h incubation, an equal volume of the CellTiter-Glo (CellTiter-Glo Luminescent Cell Viability Assay, Promega, Madison, Wis.) to that of the cell culture medium was added into each well of the plate. After the contents were mixed to induce cell lysis and stabilization, cell luminescence was recorded using a SpectraMax M5^e (Molecular Devices, Sunnyvale, Calif., USA)
# (§2) The luminescence of Compound B treated cells was compared relative to the average of the 24 DMSO-treated control wells at each cell density for every concentration of Compound B for all triplicate wells. The percent intensity values were used in model 205 of XLfit in Microsoft Excel to calculate gIC50s for the low and high seeding density (a 4 parameter logistical fit). Specifically, the midpoint of the growth window (the gIC50) falls half way between the number of cells at the time of compound addition (T=0) and the growth of control cells treated with DMSO. The gIC50 value serves as a metric for measuring the inhibition of proliferation in cancer cells. The curves for each seeding density for each cell line were manually inspected for both data quality and appropriateness of curve fitting. Where the starting data were poor the curve and subsequent gIC50s were excluded from further analysis. Cell line seedings were considered of poor quality when the r^2 value of the fitted curve was <0.75. Finally, where data quality permits, the Ymin values (defined as the maximum growth inhibition relative to the cell density at Time-zero) were calculated as a measure of cytotoxicity where data were of reasonable quality.
# BT-20 = test: Panel A proliferation assay (CellTiter-Glo); HER2 2 copies, KRAS WT, PIK3CA p.P539R; details: for IC50: Homo sapiens
# Protocol: as §1
# as §2, with “The curves for each seeding density for each cell line were manually inspected for both data quality and appropriateness of curve fitting. Where the starting data were poor the curve and subsequent gIC50s were excluded from further analysis. Cell line seedings were considered of poor quality when the r^2 value of the fitted curve was <0.75.” left out
# DU4475 = test: Panel A proliferation assay (CellTiter-Glo); HER2 2 copies, KRAS WT, PIK3CA WT; details: for IC50: Homo sapiens, DU-4475
# Protocol: (§3) A total of 15 breast cancer cell lines were used in this study. […] Cells of each line were seeded into a 384-well microtiter plate at two cell densities. Low density ranges were 300-1800 cells/well, and a high density was 600 to 3600 cells/well). The plating density was determined by the rate of proliferation of the cell line in the absence of any inhibitor and varied amongst cell lines. High plating densities were double that of low density. Each cell density was plated in triplicate. […] In addition, there were 24 wells of dimethyl sulfoxide (DMSO)-treated controls at each density. After seeding, the cells were incubated at 37° C. in 5% CO2 for 24 hours. […] After a 72 h incubation, an equal volume of the CellTiter-Glo (CellTiter-Glo Luminescent Cell Viability Assay, Promega, Madison, Wis.) to that of the cell culture medium was added into each well of the plate. After the contents were mixed to induce cell lysis and stabilization, cell luminescence was recorded using a SpectraMax M5^e (Molecular Devices, Sunnyvale, Calif., USA)
# as §2, with “Specifically,” for “The luminescence of Compound B treated cells was compared relative to the average of the 24 DMSO-treated control wells at each cell density for every concentration of Compound B for all triplicate wells. The percent intensity values were used in model 205 of XLfit in Microsoft Excel to calculate gIC50s for the low and high seeding density (a 4 parameter logistical fit). Specifically,”
# MDA-MB-468 = test: as above; details: for IC50: Homo sapiens
# Protocol: as §3
# as §2, with “Specifically,” for “The luminescence of Compound B treated cells was compared relative to the average of the 24 DMSO-treated control wells at each cell density for every concentration of Compound B for all triplicate wells. The percent intensity values were used in model 205 of XLfit in Microsoft Excel to calculate gIC50s for the low and high seeding density (a 4 parameter logistical fit). Specifically,”
# NCI/ADR-RES = test: as above; details: for IC50: Homo sapiens
# Protocol: as §3
# as §2, with “Specifically,” for “The luminescence of Compound B treated cells was compared relative to the average of the 24 DMSO-treated control wells at each cell density for every concentration of Compound B for all triplicate wells. The percent intensity values were used in model 205 of XLfit in Microsoft Excel to calculate gIC50s for the low and high seeding density (a 4 parameter logistical fit). Specifically,”
# MDA-MB-231 = test: Panel A proliferation assay (CellTiter-Glo); HER2 2 copies, KRAS p.G13D, PIK3CA WT; details: for IC50: Homo sapiens
# Protocol: as §3
# as §2, with “Specifically,” for “The luminescence of Compound B treated cells was compared relative to the average of the 24 DMSO-treated control wells at each cell density for every concentration of Compound B for all triplicate wells. The percent intensity values were used in model 205 of XLfit in Microsoft Excel to calculate gIC50s for the low and high seeding density (a 4 parameter logistical fit). Specifically,”
# [1] = high seeding density, 72 h, read-out: High Density gIC50
# [2] = low seeding density, 72 h, read-out: Low Density gIC50
# [3] = mean of low and high density, read-out: Mean gIC50
# [4] = high density, % of cells at T = 0
# [5] = low density, % of cells at T = 0
smiles,measurement,setting,value
"COc1ncc(-c2ccc3nccc(-c4ccnnc4)c3c2)cc1NS(=O)(=O)c1ccc(F)cc1F [Compound B, 2,4-difluoro-N-{2-(methyloxy)-5-[4-(4-pyridazinyl)-6-quinolinyl]-3-pyridinyl}benzenesulfonamide]",IC50,MDA-MB-175-VII; [1],1.1 nM
same,IC50,MDA-MB-175-VII; [2],1.7 nM
same,IC50,MDA-MB-175-VII; [3],1.4 nM
same,High Density Y-Min,MDA-MB-175-VII; [4],12.2%
same,Low Density Y-Min,MDA-MB-175-VII; [5],19.8%
same,High Density Y-Min,"BT-20; BT-20, high density, % of cells at T = 0",20.7%
same,Low Density Y-Min,"BT-20; BT-20, low density, % of cells at T = 0",10.7%
same,IC50,"BT-20; BT-20, high seeding density, 72 h, read-out: High Density gIC50",7.8 nM
same,IC50,"BT-20; BT-20, low seeding density, 72 h, read-out: Low Density gIC50",6.3 nM
same,IC50,"BT-20; BT-20, mean of low and high density, read-out: Mean gIC50",7.05 nM
same,High Density Y-Min,"DU4475; DU4475, high density, % of cells at T = 0",−8.4%
same,Low Density Y-Min,"DU4475; DU4475, low density, % of cells at T = 0",1.2%
same,IC50,"DU4475; DU4475, high seeding density, 72 h, read-out: High Density gIC50",20.6 nM
same,IC50,"DU4475; DU4475, low seeding density, 72 h, read-out: Low Density gIC50",3.6 nM
same,IC50,"DU4475; DU4475, mean of low and high density, read-out: Mean gIC50",12.1 nM
same,IC50,"MDA-MB-468; MDA-MB-468, high seeding density, 72 h, read-out: High Density gIC50",32.1 nM
same,IC50,"MDA-MB-468; MDA-MB-468, low seeding density, 72 h, read-out: Low Density gIC50",37.2 nM
same,IC50,"MDA-MB-468; MDA-MB-468, mean of low and high density, read-out: Mean gIC50",34.9 nM
same,High Density Y-Min,"MDA-MB-468; MDA-MB-468, high density, % of cells at T = 0",35.5%
same,Low Density Y-Min,"MDA-MB-468; MDA-MB-468, low density, % of cells at T = 0",27.9%
same,IC50,NCI/ADR-RES; [1],25.4 nM
same,IC50,NCI/ADR-RES; [2],51.6 nM
same,IC50,NCI/ADR-RES; [3],38.5 nM
same,High Density Y-Min,NCI/ADR-RES; [4],98.9%
same,Low Density Y-Min,NCI/ADR-RES; [5],518.6%
same,IC50,"MDA-MB-231; MDA-MB-231, high seeding density, 72 h, read-out: High Density gIC50",357 nM
same,IC50,"MDA-MB-231; MDA-MB-231, low seeding density, 72 h, read-out: Low Density gIC50",97.1 nM
same,IC50,"MDA-MB-231; MDA-MB-231, mean of low and high density, read-out: Mean gIC50",227 nM
same,High Density Y-Min,"MDA-MB-231; MDA-MB-231, high density, % of cells at T = 0",357.2%
same,Low Density Y-Min,"MDA-MB-231; MDA-MB-231, low density, % of cells at T = 0",189.1%
